The test addresses T1, FPR2 (Homo sapiens, UniProt P25090).
T1 construct: expressed in transfected cells; host or cells: HEK-Gα16, CHO-Gα16 and HEK-Gqi5 cells stably expressing FPR2
T1 sequence (P25090 1-351): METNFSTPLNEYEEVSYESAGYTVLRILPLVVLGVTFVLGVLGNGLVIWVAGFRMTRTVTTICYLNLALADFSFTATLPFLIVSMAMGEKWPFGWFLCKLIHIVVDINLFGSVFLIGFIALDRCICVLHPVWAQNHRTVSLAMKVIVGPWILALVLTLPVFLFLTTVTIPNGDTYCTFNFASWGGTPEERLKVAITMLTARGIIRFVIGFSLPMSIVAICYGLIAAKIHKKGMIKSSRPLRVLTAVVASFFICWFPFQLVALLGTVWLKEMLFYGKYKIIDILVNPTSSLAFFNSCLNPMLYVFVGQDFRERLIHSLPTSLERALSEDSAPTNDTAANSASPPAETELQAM
The experiment in a line: FPR2 compound-induced calcium activity assay on FLIPR Tetra. The format is cell-based. The settings on record: HEK-Gα16, CHO-Gα16 or HEK-Gqi5 cells stably expressing FPR2, tested at 0.61 to 10,000 nM; for Emax: read-out: % Efficacy. As to the method:
Compounds of Formula I modulate FPR activity. […] HEK-Gα16 and CHO-Gα16 cells stably expressing FPR2 were cultured in (F12, 10% FBS, 1% PSA, 400 μg/ml geneticin and 50 μg/ml hygromycin) and HEK-Gqi5 cells stable expressing FPR2 were cultured in (DMEM high glucose, 10% FBS, 1% PSA, 400 μg/ml geneticin and 50 μg/ml hygromycin). In general, the day before the experiment, 18,000 cells/well were plated in a 384-well clear bottom poly-D-lysine coated plate. The following day, the screening compound-induced calcium activity was assayed on the FLIPR^Tetra. The drug plates were prepared in 384-well microplates using the EP3 and the MuItiPROBE robotic liquid handling systems. Compounds were tested at concentrations ranging from 0.61 to 10,000 nM. Results are expressed as EC50 (nM) and efficacy values.

We go through 17 compounds from patent publication US9663457B2, “Carbamoyl hydrazine derivatives as formyl peptide modulators” (Allergan, Inc., priority 2014, dated 2017).

For `CCOC(=O)CCC(=O)N(CC(C)C)NC(=O)Nc1ccc(Br)cc1` [Compound 7, Ethyl 4-{2-[(4-Bromophenyl)carbamoyl]-1-(2-methylpropyl)hydrazinyl}-4-oxobutanoate], the EC50 was 31 nM and the Emax is 100%.

Turning to `CCCC(CCC)(CC(=O)NNC(=O)Nc1ccc(Br)cc1)C(=O)O` [Compound 5, 2-[2-(2-{[(4-Bromophenyl)amino]carbonyl}hydrazino)-2-oxoethyl]-2-propylpentanoic Acid], the EC50 came out at 215 nM and the Emax stood at 87%.

`CC(C)(CC(=O)NNC(=O)Nc1ccc(Br)cc1)C(=O)O` [Compound 3, 4-{2-[(4-bromophenyl)carbamoyl]hydrazinyl}-2,2-dimethyl-4-oxobutanoic acid]: the EC50 was found to be 602 nM and the Emax stood at 86%.

Consider `CC(C)(C(=O)O)C(=O)NNC(=O)Nc1ccc(Br)cc1` [Compound 2, 3-{2-[(4-Bromophenyl)carbamoyl]hydrazinyl}-2,2-dimethyl-3-oxopropanoic Acid], for which the EC50 came out at 5210 nM and the Emax was determined as 73%.

Turning to `CCCN(NC(=O)Nc1ccc(Br)cc1F)C(=O)CCC(=O)O` [Compound 17, 4-{2-[(4-bromo-2-fluorophenyl)carbamoyl]-1-propylhydrazinyl}-4-oxobutanoic acid], the EC50 amounted to 29 nM and the Emax was determined as 100%.

For `CCCN(NC(=O)Nc1ccc(C(F)(F)F)cc1)C(=O)CCC(=O)O` [Compound 14, 4-oxo-4-(1-propyl-2-{[4-(trifluoromethyl)phenyl]carbamoyl}hydrazinyl)butanoic acid], the EC50 is 28 nM and the Emax is 97%.

Take `CC(C)CN(NC(=O)Nc1ccc(C(F)(F)F)cc1)C(=O)CCC(=O)O` [Compound 12, 4-[1-(2-methylpropyl)-2-{[4-(trifluoromethyl)phenyl]carbamoyl}hydrazinyl]-4-oxobutanoic acid]: the concentration for a half-maximal effect (EC50) worked out at 21 nM and the Emax was found to be 98%.

For `CCC(CC)(CC(=O)NNC(=O)Nc1ccc(Br)cc1)C(=O)O` [Compound 6, 4-{2-[(4-bromophenyl)carbamoyl]hydrazinyl}-2,2-diethyl-4-oxobutanoic acid], the EC50 is 421 nM and the Emax came out at 73%.

`CCCC(CCC)(CC(=O)NNC(=O)Nc1ccc(Br)cc1)C(=O)OC` [Compound 4, methyl 2-(2-{2-[(4-bromophenyl)carbamoyl]hydrazinyl}-2-oxoethyl)-2-propylpentanoate]: the EC50 stood at 46 nM and the Emax stood at 89%.

For the compound `CCCN(NC(=O)Nc1ccc(C(F)(F)F)cc1)C(=O)CCC(=O)OCC` [Compound 13, ethyl 4-oxo-4-(1-propyl-2-{[4-(trifluoromethyl)phenyl]carbamoyl}hydrazinyl)butanoate], the EC50 came to 35 nM and the Emax is 98%.

As to `CCOC(=O)CC(=O)NNC(=O)Nc1ccc(Br)cc1` [Compound 1, Ethyl 3-{2[(4-bromophenyl)carbamoyl]hydrazinyl}-3-oxopropanoate], the half-maximal effective concentration (EC50) amounted to 750 nM and the Emax amounted to 100%.

For `CCOC(=O)CCC(=O)N(CC(C)C)NC(=O)Nc1ccc(Br)cc1F` [Compound 9, ethyl 4-{2-[(4-bromo-2-fluorophenyl)carbamoyl]-1-(2-methylpropyl)hydrazinyl}-4-oxobutanoate], the EC50 was determined as 3660 nM and the Emax turned out to be 76%.

For `CC(C)CN(NC(=O)Nc1ccc(Br)cc1F)C(=O)CCC(=O)O` [Compound 10, 4-{2-[(4-bromo-2-fluorophenyl)carbamoyl]-1-(2-methylpropyl)hydrazinyl}-4-oxobutanoic acid], the 50% effective concentration (EC50) is 339 nM and the Emax was determined as 99%.

With `CCOC(=O)CCC(=O)N(CC(C)C)NC(=O)Nc1ccc(C(F)(F)F)cc1` [Compound 11, ethyl 4-[1-(2-methylpropyl) 2{[4-(trifluoromethyl)phenyl]carbamoyl}hydrazinyl]-4-oxobutanoate], the EC50 came out at 57 nM and the Emax is 94%.

As for `CCCN(NC(=O)Nc1ccc(Br)cc1F)C(=O)CCC(=O)OCC` [Compound 16, ethyl 4-{2-[(4-bromo-2-fluorophenyl)carbamoyl]-1-propylhydrazinyl}-4-oxobutanoate], the concentration giving a half-maximal response (EC50) was 34 nM and the Emax stood at 100%.

Regarding `CC(C)CN(NC(=O)Nc1ccc(Br)cc1)C(=O)CCC(=O)O` [Compound 8, 4-{2-[(4-Bromophenyl)carbamoyl]-1-(2-methylpropyl)hydrazinyl}-4-oxobutanoic Acid], the EC50 was found to be 12 nM and the Emax is 100%.

For the compound `CCCCN(NC(=O)Nc1ccc(Br)cc1)C(=O)CCC(=O)OCC` [Compound 15, ethyl 4-{2-[(4-bromophenyl)carbamoyl]-1-butylhydrazinyl}-4-oxobutanoate], the EC50 was found to be 34 nM and the Emax is 100%.

The term EC50 denotes the midpoint of the concentration-response curve.
